As a reminder, the Ki is a dissociation constant, usually derived from enzyme kinetics or from competition with a known ligand. A lower Ki goes with a stronger hold on the target.

The values that follow come from article PMC7442682 (Chemical biology & drug design, 2020).

Test [1] has as its target T1, α1B adrenergic receptor (Homo sapiens, UniProt P35368).
T1 sequence (P35368 1-520): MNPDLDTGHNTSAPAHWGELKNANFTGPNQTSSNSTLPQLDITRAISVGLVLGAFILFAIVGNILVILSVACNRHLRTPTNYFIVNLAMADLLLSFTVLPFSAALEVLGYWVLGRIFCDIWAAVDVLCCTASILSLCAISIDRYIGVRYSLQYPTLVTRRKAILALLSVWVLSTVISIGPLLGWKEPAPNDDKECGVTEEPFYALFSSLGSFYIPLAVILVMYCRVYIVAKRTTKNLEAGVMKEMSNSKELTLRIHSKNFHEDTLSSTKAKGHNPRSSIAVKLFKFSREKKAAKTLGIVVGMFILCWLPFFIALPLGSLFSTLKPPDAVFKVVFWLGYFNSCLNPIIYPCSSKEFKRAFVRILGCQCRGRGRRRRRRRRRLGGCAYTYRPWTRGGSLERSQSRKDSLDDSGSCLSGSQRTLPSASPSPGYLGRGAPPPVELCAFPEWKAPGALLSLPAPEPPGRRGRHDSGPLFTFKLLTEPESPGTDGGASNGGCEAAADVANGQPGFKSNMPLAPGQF
The experiment in a line: PDSP radioligand binding, α1B adrenergic receptor. The settings on record: for inhibition at 10 µM: read-out: Ki α1B.

Test [2] concerns the target D2 receptor (Homo sapiens, UniProt P14416). As to the kind of experiment: PDSP radioligand binding, dopamine D2 receptor.
Test [3] deals with 5-HT1B receptor (Homo sapiens, UniProt P28222). The experiment in a line: PDSP radioligand binding, 5-HT1B receptor.
Sequence of 5-HT1B receptor (P28222 whole entry): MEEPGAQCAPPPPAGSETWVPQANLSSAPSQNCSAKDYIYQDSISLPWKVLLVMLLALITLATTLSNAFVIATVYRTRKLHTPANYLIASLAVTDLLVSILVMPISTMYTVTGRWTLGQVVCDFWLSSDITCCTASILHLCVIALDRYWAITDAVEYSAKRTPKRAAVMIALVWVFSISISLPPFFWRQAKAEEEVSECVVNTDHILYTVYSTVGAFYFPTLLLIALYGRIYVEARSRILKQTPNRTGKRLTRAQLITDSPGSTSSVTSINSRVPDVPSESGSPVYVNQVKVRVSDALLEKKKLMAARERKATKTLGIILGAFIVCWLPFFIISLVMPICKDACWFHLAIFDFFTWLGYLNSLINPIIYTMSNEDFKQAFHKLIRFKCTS
Test [4] addresses T2, D4 receptor (Homo sapiens, UniProt P21917).
T2 sequence (P21917 1-419): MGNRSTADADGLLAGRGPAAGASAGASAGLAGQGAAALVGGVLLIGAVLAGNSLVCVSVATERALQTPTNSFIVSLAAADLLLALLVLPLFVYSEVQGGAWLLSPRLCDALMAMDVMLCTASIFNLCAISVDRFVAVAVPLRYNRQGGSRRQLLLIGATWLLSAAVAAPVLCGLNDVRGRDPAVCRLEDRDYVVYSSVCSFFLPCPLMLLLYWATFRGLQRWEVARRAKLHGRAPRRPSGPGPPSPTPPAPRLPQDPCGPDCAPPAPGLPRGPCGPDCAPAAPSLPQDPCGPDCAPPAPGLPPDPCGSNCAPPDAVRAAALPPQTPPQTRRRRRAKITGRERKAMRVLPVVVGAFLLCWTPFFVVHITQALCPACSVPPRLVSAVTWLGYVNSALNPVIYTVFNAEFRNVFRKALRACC
The experiment in a line: PDSP radioligand binding, dopamine D4 receptor. The settings on record: read-out: Ki D4.

Test [5] has as its target D3 receptor (Homo sapiens, UniProt P35462). The experiment in a line: PDSP radioligand binding, dopamine D3 receptor.
Test [6] has as its target T3, α2A adrenergic receptor (Homo sapiens, UniProt P08913).
T3 sequence (P08913 1-465): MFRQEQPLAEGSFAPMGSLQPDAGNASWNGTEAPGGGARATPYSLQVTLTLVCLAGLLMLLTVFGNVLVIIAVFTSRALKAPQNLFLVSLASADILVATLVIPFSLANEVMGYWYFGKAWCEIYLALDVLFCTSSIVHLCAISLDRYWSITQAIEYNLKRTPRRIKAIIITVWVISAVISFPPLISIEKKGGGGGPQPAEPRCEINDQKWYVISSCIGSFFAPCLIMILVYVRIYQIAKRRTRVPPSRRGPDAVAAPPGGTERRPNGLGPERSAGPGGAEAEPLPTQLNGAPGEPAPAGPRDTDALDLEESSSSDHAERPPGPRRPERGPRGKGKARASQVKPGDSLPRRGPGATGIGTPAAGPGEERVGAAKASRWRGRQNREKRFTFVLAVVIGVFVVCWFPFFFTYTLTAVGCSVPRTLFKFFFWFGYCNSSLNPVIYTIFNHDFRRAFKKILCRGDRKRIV
As to the kind of experiment: PDSP radioligand binding, α2A adrenergic receptor.

Test [7] deals with D5 receptor (Homo sapiens, UniProt P21918). The experiment in a line: PDSP radioligand binding, dopamine D5 receptor. The settings on record: read-out: Ki D5.
Sequence of D5 receptor (P21918 whole entry): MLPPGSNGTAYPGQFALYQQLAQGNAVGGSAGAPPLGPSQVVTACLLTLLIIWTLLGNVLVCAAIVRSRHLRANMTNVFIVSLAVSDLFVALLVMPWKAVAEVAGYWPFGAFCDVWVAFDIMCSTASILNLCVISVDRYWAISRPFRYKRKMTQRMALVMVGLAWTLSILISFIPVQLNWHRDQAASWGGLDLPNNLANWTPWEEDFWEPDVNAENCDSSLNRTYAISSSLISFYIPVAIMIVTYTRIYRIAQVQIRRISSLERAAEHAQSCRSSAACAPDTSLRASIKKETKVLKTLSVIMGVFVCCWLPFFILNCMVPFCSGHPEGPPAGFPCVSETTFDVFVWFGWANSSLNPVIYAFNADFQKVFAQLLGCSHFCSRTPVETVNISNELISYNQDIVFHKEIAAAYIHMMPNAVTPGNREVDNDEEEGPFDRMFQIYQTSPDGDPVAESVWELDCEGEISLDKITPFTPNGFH
The target in test [8] is T4, 5-HT1A receptor (Homo sapiens, UniProt P08908).
T4 sequence (P08908 1-422): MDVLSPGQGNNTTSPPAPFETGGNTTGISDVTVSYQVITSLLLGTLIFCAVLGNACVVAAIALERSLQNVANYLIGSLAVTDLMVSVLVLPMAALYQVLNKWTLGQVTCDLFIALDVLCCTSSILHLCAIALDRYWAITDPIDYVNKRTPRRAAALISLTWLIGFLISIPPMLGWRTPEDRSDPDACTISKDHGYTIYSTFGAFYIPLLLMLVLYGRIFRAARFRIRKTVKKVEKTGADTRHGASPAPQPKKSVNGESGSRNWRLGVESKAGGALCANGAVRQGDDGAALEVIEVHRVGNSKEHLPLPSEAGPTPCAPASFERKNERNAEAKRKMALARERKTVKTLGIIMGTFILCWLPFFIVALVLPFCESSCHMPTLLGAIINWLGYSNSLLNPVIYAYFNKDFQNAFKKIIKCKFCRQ
As to the kind of experiment: PDSP radioligand binding, 5-HT1A receptor.

Test [9] concerns the target T5, α2B adrenergic receptor (Homo sapiens, UniProt P18089).
T5 sequence (P18089 1-450): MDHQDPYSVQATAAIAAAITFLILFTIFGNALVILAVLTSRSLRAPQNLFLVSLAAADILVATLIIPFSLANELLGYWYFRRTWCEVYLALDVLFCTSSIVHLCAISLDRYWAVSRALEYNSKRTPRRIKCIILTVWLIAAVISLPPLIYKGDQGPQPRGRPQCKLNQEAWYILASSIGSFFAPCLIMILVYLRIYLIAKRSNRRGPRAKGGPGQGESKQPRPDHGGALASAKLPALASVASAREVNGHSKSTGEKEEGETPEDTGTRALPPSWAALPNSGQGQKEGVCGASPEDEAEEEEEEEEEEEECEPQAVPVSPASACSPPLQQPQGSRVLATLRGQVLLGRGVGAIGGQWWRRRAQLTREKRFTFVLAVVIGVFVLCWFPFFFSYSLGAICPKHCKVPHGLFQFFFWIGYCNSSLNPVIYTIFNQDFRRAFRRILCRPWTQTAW
The experiment in a line: PDSP radioligand binding, α2B adrenergic receptor.

The target of test [10] is 5-HT5A receptor (Homo sapiens, UniProt P47898). As to the kind of experiment: PDSP radioligand binding, 5-HT5A receptor.
Sequence of 5-HT5A receptor (P47898 whole entry): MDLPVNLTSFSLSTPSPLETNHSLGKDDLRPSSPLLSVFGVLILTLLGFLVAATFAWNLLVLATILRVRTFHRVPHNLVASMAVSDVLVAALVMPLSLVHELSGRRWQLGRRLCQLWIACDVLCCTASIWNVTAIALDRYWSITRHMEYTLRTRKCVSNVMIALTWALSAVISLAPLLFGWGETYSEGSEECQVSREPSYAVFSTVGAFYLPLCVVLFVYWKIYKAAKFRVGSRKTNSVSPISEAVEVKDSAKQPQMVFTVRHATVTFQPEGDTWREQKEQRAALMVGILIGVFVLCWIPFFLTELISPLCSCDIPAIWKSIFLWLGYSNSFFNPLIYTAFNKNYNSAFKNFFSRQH
For test [11], the target named is 5-HT6 receptor (Homo sapiens, UniProt P50406). As to the kind of experiment: PDSP radioligand binding, 5-HT6 receptor. Particulars: for 5-HT6 selectivity versus the other receptors tested: versus all other dopamine, serotonin and adrenergic receptors tested.
Sequence of 5-HT6 receptor (P50406 whole entry): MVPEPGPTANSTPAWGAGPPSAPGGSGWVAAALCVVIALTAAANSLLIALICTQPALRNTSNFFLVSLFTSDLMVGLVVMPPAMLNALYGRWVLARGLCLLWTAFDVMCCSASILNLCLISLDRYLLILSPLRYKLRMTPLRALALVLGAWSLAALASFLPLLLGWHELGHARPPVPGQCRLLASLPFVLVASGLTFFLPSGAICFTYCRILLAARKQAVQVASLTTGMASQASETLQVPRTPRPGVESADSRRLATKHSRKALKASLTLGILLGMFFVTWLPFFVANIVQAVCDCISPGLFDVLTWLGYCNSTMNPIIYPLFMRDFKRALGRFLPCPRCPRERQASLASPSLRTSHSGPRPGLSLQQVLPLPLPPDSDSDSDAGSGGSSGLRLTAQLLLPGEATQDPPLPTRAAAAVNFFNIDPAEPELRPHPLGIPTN
For test [12], the target named is D1 receptor (Homo sapiens, UniProt P21728). The experiment in a line: PDSP radioligand binding, dopamine D1 receptor.
Sequence of D1 receptor (P21728 whole entry): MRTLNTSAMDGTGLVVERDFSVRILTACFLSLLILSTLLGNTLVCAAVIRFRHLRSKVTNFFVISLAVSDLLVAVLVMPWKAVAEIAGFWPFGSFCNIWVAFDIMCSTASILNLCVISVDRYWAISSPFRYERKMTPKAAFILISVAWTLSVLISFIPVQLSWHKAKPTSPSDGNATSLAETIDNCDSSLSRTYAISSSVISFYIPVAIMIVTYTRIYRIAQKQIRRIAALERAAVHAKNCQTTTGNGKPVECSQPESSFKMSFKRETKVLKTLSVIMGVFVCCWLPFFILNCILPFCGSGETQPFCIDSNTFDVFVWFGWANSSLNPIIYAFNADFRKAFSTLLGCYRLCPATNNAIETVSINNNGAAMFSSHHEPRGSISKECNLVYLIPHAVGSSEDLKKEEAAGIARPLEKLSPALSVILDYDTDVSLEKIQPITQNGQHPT
The target of test [13] is T6, α1A adrenergic receptor (Homo sapiens, UniProt P35348).
T6 sequence (P35348 1-466): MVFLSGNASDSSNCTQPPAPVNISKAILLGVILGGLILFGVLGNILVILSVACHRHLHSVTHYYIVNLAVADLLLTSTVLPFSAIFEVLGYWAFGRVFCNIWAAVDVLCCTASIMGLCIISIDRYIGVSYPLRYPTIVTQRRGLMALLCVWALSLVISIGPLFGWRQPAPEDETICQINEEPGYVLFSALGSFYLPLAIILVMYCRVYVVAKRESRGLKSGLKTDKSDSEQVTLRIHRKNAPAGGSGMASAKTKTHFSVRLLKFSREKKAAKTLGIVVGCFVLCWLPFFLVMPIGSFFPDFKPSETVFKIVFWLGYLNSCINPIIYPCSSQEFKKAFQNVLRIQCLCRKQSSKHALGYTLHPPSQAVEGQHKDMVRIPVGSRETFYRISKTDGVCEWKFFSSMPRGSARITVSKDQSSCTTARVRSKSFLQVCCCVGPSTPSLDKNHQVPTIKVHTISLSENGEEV
As to the kind of experiment: PDSP radioligand binding, α1A adrenergic receptor.

The target in test [14] is T7, α2C adrenergic receptor (Homo sapiens, UniProt P18825).
T7 sequence (P18825 1-462): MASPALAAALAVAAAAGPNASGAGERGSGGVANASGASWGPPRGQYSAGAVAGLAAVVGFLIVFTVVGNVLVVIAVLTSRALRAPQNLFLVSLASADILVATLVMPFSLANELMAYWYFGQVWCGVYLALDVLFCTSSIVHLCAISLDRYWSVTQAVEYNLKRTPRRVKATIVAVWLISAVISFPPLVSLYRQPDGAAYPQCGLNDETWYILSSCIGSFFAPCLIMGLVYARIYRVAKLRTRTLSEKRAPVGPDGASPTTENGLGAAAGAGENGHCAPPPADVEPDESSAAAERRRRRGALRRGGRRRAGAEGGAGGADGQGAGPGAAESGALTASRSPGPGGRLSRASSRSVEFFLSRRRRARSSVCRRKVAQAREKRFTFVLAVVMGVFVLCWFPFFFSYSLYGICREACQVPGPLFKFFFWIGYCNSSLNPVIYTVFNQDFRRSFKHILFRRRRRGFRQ
As to the kind of experiment: PDSP radioligand binding, α2C adrenergic receptor.

Test [15] concerns the target 5-HT2A receptor (Homo sapiens, UniProt P28223). As to the kind of experiment: PDSP radioligand binding, 5-HT2A receptor.

Sequence of D2 receptor (P14416 whole entry): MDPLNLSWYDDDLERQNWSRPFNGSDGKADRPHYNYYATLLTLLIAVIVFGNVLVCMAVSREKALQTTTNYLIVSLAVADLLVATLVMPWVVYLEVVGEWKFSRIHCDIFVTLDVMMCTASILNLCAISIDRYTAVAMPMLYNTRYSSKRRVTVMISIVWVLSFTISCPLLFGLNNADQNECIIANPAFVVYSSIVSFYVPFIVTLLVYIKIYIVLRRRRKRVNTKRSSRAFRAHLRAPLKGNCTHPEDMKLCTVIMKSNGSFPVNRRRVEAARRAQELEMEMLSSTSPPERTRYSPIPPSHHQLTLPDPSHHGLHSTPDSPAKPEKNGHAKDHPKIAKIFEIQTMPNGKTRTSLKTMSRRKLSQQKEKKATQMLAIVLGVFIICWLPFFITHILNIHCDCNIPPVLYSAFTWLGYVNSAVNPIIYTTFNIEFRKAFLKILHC
Sequence of 5-HT2A receptor (P28223 whole entry): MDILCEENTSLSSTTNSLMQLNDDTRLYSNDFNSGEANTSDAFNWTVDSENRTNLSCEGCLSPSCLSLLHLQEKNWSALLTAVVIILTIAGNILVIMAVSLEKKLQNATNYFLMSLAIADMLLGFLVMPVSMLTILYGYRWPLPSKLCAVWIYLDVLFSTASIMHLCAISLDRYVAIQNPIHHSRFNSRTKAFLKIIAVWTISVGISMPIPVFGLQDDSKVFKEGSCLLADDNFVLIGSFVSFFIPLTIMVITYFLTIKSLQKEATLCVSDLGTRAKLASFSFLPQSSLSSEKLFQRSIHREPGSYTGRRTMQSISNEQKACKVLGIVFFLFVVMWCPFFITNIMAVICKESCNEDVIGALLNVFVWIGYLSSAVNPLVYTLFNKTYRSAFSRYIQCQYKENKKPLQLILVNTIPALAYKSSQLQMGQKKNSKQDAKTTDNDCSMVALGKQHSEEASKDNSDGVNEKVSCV
Sequence of D3 receptor (P35462 whole entry): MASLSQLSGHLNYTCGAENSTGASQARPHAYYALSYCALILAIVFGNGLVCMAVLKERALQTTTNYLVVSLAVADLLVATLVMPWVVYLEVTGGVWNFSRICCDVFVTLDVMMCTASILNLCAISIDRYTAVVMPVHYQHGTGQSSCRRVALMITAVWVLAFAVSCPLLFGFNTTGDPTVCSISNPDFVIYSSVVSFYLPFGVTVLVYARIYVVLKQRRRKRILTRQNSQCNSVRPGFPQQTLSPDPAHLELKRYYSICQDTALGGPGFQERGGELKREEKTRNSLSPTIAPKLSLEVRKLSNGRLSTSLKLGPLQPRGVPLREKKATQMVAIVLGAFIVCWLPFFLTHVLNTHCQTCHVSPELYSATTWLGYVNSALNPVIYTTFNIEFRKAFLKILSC

Take `COc1cc2c3c(c1OC)-c1ccccc1C3CNCC2` (stereo not shown) [Compound 10, 6,7-dimethoxy-2,3,4,11b-tetrahydro-1H-fluoreno[9,1-cd]azepine]: the Ki in [1] amounted to 2590 nM; in [2] it was 780 nM; in test [3] it was 255 nM; in test [5], 415 nM; in [6], 1600 nM; in [8], 110 nM. In addition, the Ki in test [9] was 1120 nM; in test [10], 578 nM; in [11] it was 5 nM; in [13], 545 nM; in [14] it was 774 nM; in [15] it was 1680 nM. The inhibition at 10 µM in test [4], in [7] and in [12] (read-out: Ki D1) was under 10% each time. For the same compound, the “5-HT6 selectivity versus the other receptors tested” value in [11] is “at least 15 fold”.

For `COc1cc2c3c(c1OC)-c1ccccc1C3CN(C)CC2` (stereo not shown) [Compound 12, 6,7-dimethoxy-2-methyl-2,3,4,11b-tetrahydro-1H-fluoreno[9,1-cd]azepine], the Ki was 5870 nM in test [1]; 636 nM in test [2]; 79 nM in [5]; 1170 nM in test [6]; 286 nM in test [10]; 5 nM in [11]. For the same compound, the Ki in test [12] was 2460 nM; in test [13], 2860 nM; in [14], 472 nM; in [15], 811 nM. In addition, the inhibition at 10 µM in test [3] (read-out: Ki 5-HT1B), in test [4], in test [7], in test [8] (read-out: Ki 5-HT1A) and in [9] (read-out: Ki α2B) was under 10% each time. In test [11], the “5-HT6 selectivity versus the other receptors tested” value is given as “at least 15 fold”.

In the case of `Oc1cc2c3c(c1O)-c1ccccc1C3CNCC2` (stereo not shown) [Compound 11, 2,3,4,11b-tetrahydro-1H-fluoreno[9,1-cd]azepine-6,7-diol], the inhibition at 10 µM in test [1], in test [4] and in test [7] was under 10% throughout. Further, the Ki was determined as 451 nM in test [3]; 2920 nM in test [5]; 2590 nM in test [6]; 151 nM in [8]; 2200 nM in test [9]; 244 nM in test [10]. Also, the inhibition constant (Ki) in test [11] amounted to 38 nM; in [12] it was 8820 nM; in test [13], 3200 nM; in test [14], 1110 nM; in test [15] it was 1560 nM.

Take `CN1CCc2cc(O)c(O)c3c2C(C1)c1ccccc1-3` (stereo not shown) [Compound 13, 2-methyl-2,3,4,11b-tetrahydro-1H-fluoreno[9,1-cd]azepine-6,7-diol]: the inhibition at 10 µM in test [1], in test [2] (read-out: Ki D2), in test [4], in test [5] (read-out: Ki D3), in test [6] (read-out: Ki α2A) and in test [7] was under 10% each time. For the same compound, the Ki came out at 1030 nM in test [3]; 393 nM in test [8]; 5820 nM in [9]; 363 nM in test [10]; 123 nM in test [11]; 865 nM in test [12]. For the same compound, the Ki in [13] was over 10000 nM; in test [14], 1960 nM; in test [15], 352 nM.
